# Source: patent US8546579B2, “Bicycloheteroaryl compounds as P2X7 modulators and uses thereof” (Evotec (US) Inc., priority 2006, dated 2013)
# Molecular target: T1, P2X7 receptor (Homo sapiens, UniProt Q99572)
# T1 construct: host or cells: THP-1 cells differentiated with LPS and IFN-γ
# T1 sequence (Q99572 1-595): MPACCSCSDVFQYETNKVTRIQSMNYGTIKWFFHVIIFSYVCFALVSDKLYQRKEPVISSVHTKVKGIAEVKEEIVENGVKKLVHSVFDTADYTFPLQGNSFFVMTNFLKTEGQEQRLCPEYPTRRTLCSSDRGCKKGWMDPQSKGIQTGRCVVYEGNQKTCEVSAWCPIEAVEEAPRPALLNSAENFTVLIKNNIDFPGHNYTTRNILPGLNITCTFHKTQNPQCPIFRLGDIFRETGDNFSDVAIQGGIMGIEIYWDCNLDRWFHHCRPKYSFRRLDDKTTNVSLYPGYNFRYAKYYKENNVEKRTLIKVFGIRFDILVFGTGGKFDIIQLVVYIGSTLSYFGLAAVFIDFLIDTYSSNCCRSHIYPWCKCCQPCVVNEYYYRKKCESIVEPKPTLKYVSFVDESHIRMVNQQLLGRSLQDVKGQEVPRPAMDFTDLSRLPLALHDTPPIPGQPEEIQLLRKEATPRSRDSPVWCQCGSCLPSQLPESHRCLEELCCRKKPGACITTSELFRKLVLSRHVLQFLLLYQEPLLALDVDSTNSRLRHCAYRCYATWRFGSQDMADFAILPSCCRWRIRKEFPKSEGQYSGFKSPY
# Assay: IL-1β release assay in differentiated THP-1 cells stimulated with BzATP (Example 9)
# Type: cell-based
# Parameters: inhibition: dose or concentration left out as unconfirmed
# Details: THP-1; read-out: IL-1β % Inhib.
# How it was run: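 IC50 derived by four-parameter logistic fit of percent inhibition of IL-1β release, measured by ELISA after 45 min stimulation with 250 uM BzATP. Cells: THP-1 differentiated 16 h with 100 ng/mL LPS plus IFN-γ, LPS-primed 2 h, compound added 30 min beforehand.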
row,SMILES,inhibition
1,Cc1ccc(C)c(C(=O)Nc2cccc3c(=O)n(CC(C)(C)C)ccc23)c1 [Compound 1414],0 to 25%
2,CCOc1ccc(C(=O)Nc2cccc3c(=O)n(CC(C)(C)C)ccc23)cc1 [Compound 1415],0 to 25%
3,CC(C)(C)Cn1ccc2c(NC(=O)c3ccc(C(C)(C)C)cc3)cccc2c1=O [Compound 1416],0 to 25%
4,CC(C)(C)Cn1ccc2c(NC(=O)CCc3ccc(Cl)cc3)cccc2c1=O [Compound 1417],26 to 50%
5,COc1ccc(C(=O)Nc2cccc3c(=O)n(CC(C)(C)C)ccc23)cc1C [Compound 1418],0 to 25%
6,Cc1ccccc1C(=O)Nc1cccc2c(=O)n(C)ccc12 [Compound 1419],0 to 25%
7,Cc1ccc(C)c(C(=O)Nc2cccc3c(=O)n(C)ccc23)c1 [Compound 1420],0 to 25%
8,COc1ccc(OC)c(CC(=O)Nc2cccc3c(=O)n(C)ccc23)c1 [Compound 1422],0 to 25%
9,Cc1ccc(CC(=O)Nc2cccc3c(=O)n(C)ccc23)cc1 [Compound 1423],0 to 25%
10,COc1ccc(C(=O)Nc2cccc3c(=O)n(C)ccc23)cc1C [Compound 1424],0 to 25%
11,CC(C)Cc1ccc(C(=O)Nc2cccc3c(=O)n(C)ccc23)cc1 [Compound 1425],0 to 25%
12,COCCn1ccc2c(NC(=O)c3ccc(C)cc3C)cccc2c1=O [Compound 1426],0 to 25%
13,COCCn1ccc2c(NC(=O)c3cc(C)ccc3C)cccc2c1=O [Compound 1427],26 to 50%
14,COCCn1ccc2c(NC(=O)c3cccc(C)c3)cccc2c1=O [Compound 1428],0 to 25%
15,CCOc1ccc(C(=O)Nc2cccc3c(=O)n(CCOC)ccc23)cc1 [Compound 1429],0 to 25%
16,COCCn1ccc2c(NC(=O)c3ccc(C(C)(C)C)cc3)cccc2c1=O [Compound 1430],0 to 25%
17,COCCn1ccc2c(NC(=O)C(C)c3ccccc3)cccc2c1=O (centres unmarked) [Compound 1431],0 to 25%
18,COCCn1ccc2c(NC(=O)CCc3ccccc3OC)cccc2c1=O [Compound 1432],0 to 25%
19,COCCn1ccc2c(NC(=O)Cc3cccc4ccccc34)cccc2c1=O [Compound 1433],0 to 25%
20,COCCn1ccc2c(NC(=O)c3ccc4ccccc4c3)cccc2c1=O [Compound 1434],0 to 25%
21,COCCn1ccc2c(NC(=O)Cc3ccccc3F)cccc2c1=O [Compound 1435],0 to 25%
22,COCCn1ccc2c(NC(=O)Cc3ccccc3Cl)cccc2c1=O [Compound 1436],0 to 25%
23,COCCn1ccc2c(NC(=O)Cc3ccccc3OC)cccc2c1=O [Compound 1437],0 to 25%

# Further lines, results first:
row,inhibition,SMILES
1,26 to 50%,COCCn1ccc2c(NC(=O)Cc3ccccc3C)cccc2c1=O [Compound 1438]
2,0 to 25%,COCCn1ccc2c(NC(=O)Cc3cccc(OC)c3)cccc2c1=O [Compound 1439]
3,0 to 25%,COCCn1ccc2c(NC(=O)c3cc(C)ccc3Cl)cccc2c1=O [Compound 1440]
4,0 to 25%,COCCn1ccc2c(NC(=O)c3cc(Cl)ccc3C)cccc2c1=O [Compound 1441]
5,0 to 25%,O=C(Nc1cccc2c(=O)n(Cc3cccnc3)ccc12)c1cc(Cl)ccc1Cl [Compound 1442]
6,0 to 25%,O=C(Nc1cccc2c(=O)n(Cc3cccnc3)ccc12)c1cc(Cl)cc(Cl)c1 [Compound 1443]
7,0 to 25%,CCOc1ccc(C(=O)Nc2cccc3c(=O)n(Cc4cccnc4)ccc23)cc1 [Compound 1444]
8,0 to 25%,CC(C)(C)c1ccc(C(=O)Nc2cccc3c(=O)n(Cc4cccnc4)ccc23)cc1 [Compound 1446]
9,0 to 25%,O=C(Nc1cccc2c(=O)n(Cc3cccnc3)ccc12)c1cccc2ccccc12 [Compound 1447]
10,0 to 25%,O=C(Nc1cccc2c(=O)n(Cc3cccnc3)ccc12)c1ccc2ccccc2c1 [Compound 1448]
11,26 to 50%,O=C(Cc1ccccc1F)Nc1cccc2c(=O)n(Cc3cccnc3)ccc12 [Compound 1449]
12,0 to 25%,CCOc1ccc(CC(=O)Nc2cccc3c(=O)n(Cc4cccnc4)ccc23)cc1 [Compound 1450]
